ChEMBL document CHEMBL1156264, “Synthesis and structure-activity relationships of dimeric peptide antagonists of the human immunoglobulin G-human neonatal Fc receptor (IgG-FcRn) interaction” (J Med Chem, 2010)
Numbered stars: 1 amine (or outer) side, 2 acyl side, 3 side chain; on linkers, the order of the positions; unused ones are H or OH. Bridge positions count the residues as written; N and C are the ends. Square brackets hold non-standard residues; d marks the D form. Peptide text beside a SMILES is read from it. I, II: the chains in the order shown. X1 = O=C(C(=O)[*:2])[C@H](Cc1ccc(O)cc1)N[*:1]; NHCH2CH2N(Me)CH2CO = CN(CCN[*:1])CC(=O)[*:2]; NMeL = CN[C@@H](CC(C)C)C(=O)O; Pen = CC(C)(S)[C@H](N)C(=O)O; X2 = C(CN[*:1])NCCN[*:2]; Sar = CNCC(=O)O

Key:
[1] = molecular target: T1, IgG receptor FcRn large subunit p51 (Homo sapiens, UniProt P55899); test: Ratio of RF-Pen-TGHFG-Sar-NMeLeu-YPC IC50 to compound IC50 for soluble human FcRn
T1 sequence (P55899 whole entry): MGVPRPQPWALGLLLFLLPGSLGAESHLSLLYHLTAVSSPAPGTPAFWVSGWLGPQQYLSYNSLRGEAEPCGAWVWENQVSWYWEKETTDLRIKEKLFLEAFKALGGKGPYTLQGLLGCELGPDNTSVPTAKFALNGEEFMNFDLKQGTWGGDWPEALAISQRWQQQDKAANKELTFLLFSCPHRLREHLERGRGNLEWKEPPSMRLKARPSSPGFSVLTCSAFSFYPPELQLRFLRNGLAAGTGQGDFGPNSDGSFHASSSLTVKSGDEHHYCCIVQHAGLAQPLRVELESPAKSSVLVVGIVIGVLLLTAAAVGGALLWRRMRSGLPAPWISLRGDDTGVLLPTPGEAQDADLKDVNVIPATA

[2] = molecular target: T1, IgG receptor FcRn large subunit p51; test: Inhibition of IgG binding to soluble human FcRn after 2 hrs by competition ELISA

Row | Ratio IC50 [1] | IC50 [2] [nM] | SMILES
1 | 130 | – | CC(C)C[C@H]1C(=O)N[C@@H](Cc2ccc(O)cc2)C(=O)C(=O)N2CCC[C@H]2C(=O)N[C@H](C(N)=O)CSSC(C)(C)[C@H](NC(=O)[C@H](Cc2ccccc2)NC(=O)[C@H](CCCNC(=N)N)NC(=O)CN(C)CCNC(=O)CNC(=O)[C@@H]2CSSC(C)(C)[C@H](NC(=O)[C@H](Cc3ccccc3)NC(=O)[C@@H](N)CCCNC(=N)N)C(=O)N[C@@H]([C@@H](C)O)C(=O)NCC(=O)N[C@@H](Cc3c[nH]cn3)C(=O)N[C@@H](Cc3ccccc3)C(=O)NCC(=O)N(C)CC(=O)N(C)[C@@H](CC(C)C)C(=O)N[C@@H](Cc3ccc(O)cc3)C(=O)C(=O)N3CCC[C@H]3C(=O)N2)C(=O)N[C@@H]([C@@H](C)O)C(=O)NCC(=O)N[C@@H](Cc2c[nH]cn2)C(=O)N[C@@H](Cc2ccccc2)C(=O)NCC(=O)N(C)CC(=O)N1C (H-RF[Pen]TGHFG[Sar][NMeL][X1]PCG[NHCH2CH2N(Me)CH2CO]RF[Pen]TGHFG[Sar][NMeL][X1]PC-NH2; disulfide 3-13, 18-28)
2 | 110 | – | CC(C)C[C@H]1C(=O)N[C@@H](Cc2ccc(O)cc2)C(=O)C(=O)N2CCC[C@H]2C(=O)N[C@H](C(N)=O)CSSC(C)(C)[C@H](NC(=O)[C@H](Cc2ccccc2)NC(=O)[C@H](CCCNC(=N)N)NC(=O)CCOCCOCCOCCOCCOCCC(=O)N[C@@H](CCCNC(=N)N)C(=O)N[C@@H](Cc2ccccc2)C(=O)N[C@@H]2C(=O)N[C@@H]([C@@H](C)O)C(=O)NCC(=O)N[C@@H](Cc3c[nH]cn3)C(=O)N[C@@H](Cc3ccccc3)C(=O)NCC(=O)N(C)CC(=O)N(C)[C@@H](CC(C)C)C(=O)N[C@@H](Cc3ccc(O)cc3)C(=O)C(=O)N3CCC[C@H]3C(=O)N[C@H](C(N)=O)CSSC2(C)C)C(=O)N[C@@H]([C@@H](C)O)C(=O)NCC(=O)N[C@@H](Cc2c[nH]cn2)C(=O)N[C@@H](Cc2ccccc2)C(=O)NCC(=O)N(C)CC(=O)N1C
3 | 100 | – | CC(C)C[C@H]1C(=O)N[C@@H](Cc2ccc(O)cc2)C(=O)C(=O)N2CCC[C@H]2C(=O)N[C@H](C(N)=O)CSSC(C)(C)[C@H](NC(=O)[C@H](Cc2ccccc2)NC(=O)[C@H](CCCNC(=N)N)NC(=O)CC(C)(C)CC(=O)N[C@@H](CCCNC(=N)N)C(=O)N[C@@H](Cc2ccccc2)C(=O)N[C@@H]2C(=O)N[C@@H]([C@@H](C)O)C(=O)NCC(=O)N[C@@H](Cc3c[nH]cn3)C(=O)N[C@@H](Cc3ccccc3)C(=O)NCC(=O)N(C)CC(=O)N(C)[C@@H](CC(C)C)C(=O)N[C@@H](Cc3ccc(O)cc3)C(=O)C(=O)N3CCC[C@H]3C(=O)N[C@H](C(N)=O)CSSC2(C)C)C(=O)N[C@@H]([C@@H](C)O)C(=O)NCC(=O)N[C@@H](Cc2c[nH]cn2)C(=O)N[C@@H](Cc2ccccc2)C(=O)NCC(=O)N(C)CC(=O)N1C
4 | 330 | 1.6 | CC(C)C[C@H]1C(=O)N[C@@H](Cc2ccc(O)cc2)C(=O)C(=O)N2CCC[C@H]2C(=O)N[C@H](C(N)=O)CSSC(C)(C)[C@H](NC(=O)[C@H](Cc2ccccc2)NC(=O)[C@H](CCCNC(=N)N)NCCNC(=O)CCC(=O)N[C@@H](CCCNC(=N)N)C(=O)N[C@@H](Cc2ccccc2)C(=O)N[C@@H]2C(=O)N[C@@H]([C@@H](C)O)C(=O)NCC(=O)N[C@@H](Cc3c[nH]cn3)C(=O)N[C@@H](Cc3ccccc3)C(=O)NCC(=O)N(C)CC(=O)N(C)[C@@H](CC(C)C)C(=O)N[C@@H](Cc3ccc(O)cc3)C(=O)C(=O)N3CCC[C@H]3C(=O)N[C@H](C(N)=O)CSSC2(C)C)C(=O)N[C@@H]([C@@H](C)O)C(=O)NCC(=O)N[C@@H](Cc2c[nH]cn2)C(=O)N[C@@H](Cc2ccccc2)C(=O)NCC(=O)N(C)CC(=O)N1C
5 | 220 | – | CC(C)C[C@H]1C(=O)N[C@@H](Cc2ccc(O)cc2)C(=O)C(=O)N2CCC[C@H]2C(=O)N[C@H](C(N)=O)CSSC(C)(C)[C@H](NC(=O)[C@H](Cc2ccccc2)NC(=O)[C@H](CCCNC(=N)N)NC(=O)CCNC(=O)CCNC(=O)CCNC(=O)CN(C)CCNC(=O)CCC(=O)N[C@@H](CCCNC(=N)N)C(=O)N[C@@H](Cc2ccccc2)C(=O)N[C@@H]2C(=O)N[C@@H]([C@@H](C)O)C(=O)NCC(=O)N[C@@H](Cc3c[nH]cn3)C(=O)N[C@@H](Cc3ccccc3)C(=O)NCC(=O)N(C)CC(=O)N(C)[C@@H](CC(C)C)C(=O)N[C@@H](Cc3ccc(O)cc3)C(=O)C(=O)N3CCC[C@H]3C(=O)N[C@H](C(N)=O)CSSC2(C)C)C(=O)N[C@@H]([C@@H](C)O)C(=O)NCC(=O)N[C@@H](Cc2c[nH]cn2)C(=O)N[C@@H](Cc2ccccc2)C(=O)NCC(=O)N(C)CC(=O)N1C
6 | 90 | 5.6 | CC(C)C[C@H]1C(=O)N[C@@H](Cc2ccc(O)cc2)C(=O)C(=O)N2CCC[C@H]2C(=O)N[C@H](C(N)=O)CSSC(C)(C)[C@H](NC(=O)[C@H](Cc2ccccc2)NC(=O)[C@H](CCCNC(=N)N)NC(=O)CC[C@H](C)C(=O)N[C@@H](CCCNC(=N)N)C(=O)N[C@@H](Cc2ccccc2)C(=O)N[C@@H]2C(=O)N[C@@H]([C@@H](C)O)C(=O)NCC(=O)N[C@@H](Cc3c[nH]cn3)C(=O)N[C@@H](Cc3ccccc3)C(=O)NCC(=O)N(C)CC(=O)N(C)[C@@H](CC(C)C)C(=O)N[C@@H](Cc3ccc(O)cc3)C(=O)C(=O)N3CCC[C@H]3C(=O)N[C@H](C(N)=O)CSSC2(C)C)C(=O)N[C@@H]([C@@H](C)O)C(=O)NCC(=O)N[C@@H](Cc2c[nH]cn2)C(=O)N[C@@H](Cc2ccccc2)C(=O)NCC(=O)N(C)CC(=O)N1C
7 | 100 | 5.2 | CC(C)C[C@H]1C(=O)N[C@@H](Cc2ccc(O)cc2)C(=O)C(=O)N2CCC[C@H]2C(=O)N[C@H](C(N)=O)CSSC(C)(C)[C@H](NC(=O)[C@H](Cc2ccccc2)NC(=O)[C@H](CCCNC(=N)N)NC(=O)CCC(=O)N(C)CCN(C)C(=O)CCC(=O)N[C@@H](CCCNC(=N)N)C(=O)N[C@@H](Cc2ccccc2)C(=O)N[C@@H]2C(=O)N[C@@H]([C@@H](C)O)C(=O)NCC(=O)N[C@@H](Cc3c[nH]cn3)C(=O)N[C@@H](Cc3ccccc3)C(=O)NCC(=O)N(C)CC(=O)N(C)[C@@H](CC(C)C)C(=O)N[C@@H](Cc3ccc(O)cc3)C(=O)C(=O)N3CCC[C@H]3C(=O)N[C@H](C(N)=O)CSSC2(C)C)C(=O)N[C@@H]([C@@H](C)O)C(=O)NCC(=O)N[C@@H](Cc2c[nH]cn2)C(=O)N[C@@H](Cc2ccccc2)C(=O)NCC(=O)N(C)CC(=O)N1C
8 | – | 4.8 | CC(C)C[C@H]1C(=O)N[C@@H](Cc2ccc(O)cc2)C(=O)C(=O)N2CCC[C@H]2C(=O)N[C@H](C(N)=O)CSSC(C)(C)[C@H](NC(=O)[C@H](Cc2ccccc2)NC(=O)[C@H](CCCNC(=N)N)NC(=O)CCOCCOCCOCCOCCOCCC(=O)N[C@@H](CCCNC(=N)N)C(=O)N[C@@H](Cc2ccccc2)C(=O)N[C@@H]2C(=O)N[C@@H]([C@@H](C)O)C(=O)NCC(=O)N[C@@H](Cc3cnc[nH]3)C(=O)N[C@@H](Cc3ccccc3)C(=O)NCC(=O)N(C)CC(=O)N(C)[C@@H](CC(C)C)C(=O)N[C@@H](Cc3ccc(O)cc3)C(=O)C(=O)N3CCC[C@H]3C(=O)N[C@H](C(N)=O)CSSC2(C)C)C(=O)N[C@@H]([C@@H](C)O)C(=O)NCC(=O)N[C@@H](Cc2cnc[nH]2)C(=O)N[C@@H](Cc2ccccc2)C(=O)NCC(=O)N(C)CC(=O)N1C
9 | 120 | – | CC(C)C[C@H]1C(=O)N[C@@H](Cc2ccc(O)cc2)C(=O)C(=O)N2CCC[C@H]2C(=O)N[C@H](C(=O)NCC(=O)NCCNCCNC(=O)CNC(=O)[C@@H]2CSSC(C)(C)[C@H](NC(=O)[C@H](Cc3ccccc3)NC(=O)[C@@H](N)CCCNC(=N)N)C(=O)N[C@@H]([C@@H](C)O)C(=O)NCC(=O)N[C@@H](Cc3c[nH]cn3)C(=O)N[C@@H](Cc3ccccc3)C(=O)NCC(=O)N(C)CC(=O)N(C)[C@@H](CC(C)C)C(=O)N[C@@H](Cc3ccc(O)cc3)C(=O)C(=O)N3CCC[C@H]3C(=O)N2)CSSC(C)(C)[C@H](NC(=O)[C@H](Cc2ccccc2)NC(=O)[C@@H](N)CCCNC(=N)N)C(=O)N[C@@H]([C@@H](C)O)C(=O)NCC(=O)N[C@@H](Cc2c[nH]cn2)C(=O)N[C@@H](Cc2ccccc2)C(=O)NCC(=O)N(C)CC(=O)N1C (I: H-RF[Pen]TGHFG[Sar][NMeL][X1]PCG / II: H-RF[Pen]TGHFG[Sar][NMeL][X1]PCG; disulfide I:3-I:13, II:3-II:13; linker I:C-II:C via X2)
10 | – | 3000 | CC(C)C[C@@H]1NC(=O)CNC(=O)CNC(=O)[C@H](Cc2ccccc2)NC(=O)[C@H](Cc2cnc[nH]2)NC(=O)CNC(=O)[C@H]([C@@H](C)O)NC(=O)[C@@H](NC(=O)[C@H](Cc2ccccc2)NC(=O)[C@H](CCCNC(=N)N)NC(=O)CCC(=O)NCCN(C)CC(=O)N[C@@H](CCCNC(=N)N)C(=O)N[C@@H](Cc2ccccc2)C(=O)N[C@H]2CSSC[C@@H](C(N)=O)NC(=O)[C@@H]3CCCN3C(=O)C(=O)[C@H](Cc3ccc(O)cc3)NC(=O)[C@H](CC(C)C)NC(=O)CNC(=O)CNC(=O)[C@H](Cc3ccccc3)NC(=O)[C@H](Cc3cnc[nH]3)NC(=O)CNC(=O)[C@H]([C@@H](C)O)NC2=O)CSSC[C@@H](C(N)=O)NC(=O)[C@@H]2CCCN2C(=O)C(=O)[C@H](Cc2ccc(O)cc2)NC1=O
11 | 110 | – | CC(C)C[C@H]1C(=O)N[C@@H](Cc2ccc(O)cc2)C(=O)C(=O)N2CCC[C@H]2C(=O)N[C@H](C(N)=O)CSSC(C)(C)[C@H](NC(=O)[C@H](Cc2ccccc2)NC(=O)[C@H](CCCNC(=N)N)NC(=O)CN(C)CC(=O)N[C@@H](CCCNC(=N)N)C(=O)N[C@@H](Cc2ccccc2)C(=O)N[C@@H]2C(=O)N[C@@H]([C@@H](C)O)C(=O)NCC(=O)N[C@@H](Cc3c[nH]cn3)C(=O)N[C@@H](Cc3ccccc3)C(=O)NCC(=O)N(C)CC(=O)N(C)[C@@H](CC(C)C)C(=O)N[C@@H](Cc3ccc(O)cc3)C(=O)C(=O)N3CCC[C@H]3C(=O)N[C@H](C(N)=O)CSSC2(C)C)C(=O)N[C@@H]([C@@H](C)O)C(=O)NCC(=O)N[C@@H](Cc2c[nH]cn2)C(=O)N[C@@H](Cc2ccccc2)C(=O)NCC(=O)N(C)CC(=O)N1C
